Measurements as given in patent US8324225B2, “Pyrrolopyrimidine compounds and their uses” (Novartis AG, priority 2006, dated 2012).

What follows are compounds tested against CDK4 (Homo sapiens, UniProt P11802) (assay: CDK4 HTRF). Conditions: Table E; read-out: CDK4 HTRF/IC50 [umol l − 1].
Format: biochemical

Chain of CDK4 (P11802 whole entry): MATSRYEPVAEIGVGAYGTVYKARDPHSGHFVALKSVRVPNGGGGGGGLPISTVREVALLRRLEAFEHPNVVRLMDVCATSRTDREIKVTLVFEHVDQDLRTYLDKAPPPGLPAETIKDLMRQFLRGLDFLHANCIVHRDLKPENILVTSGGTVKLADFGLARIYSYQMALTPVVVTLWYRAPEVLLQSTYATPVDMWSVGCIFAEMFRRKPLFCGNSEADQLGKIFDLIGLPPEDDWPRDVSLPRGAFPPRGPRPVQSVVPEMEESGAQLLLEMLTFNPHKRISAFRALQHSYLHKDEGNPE
Chain of CDK4 (P24385 whole entry partner): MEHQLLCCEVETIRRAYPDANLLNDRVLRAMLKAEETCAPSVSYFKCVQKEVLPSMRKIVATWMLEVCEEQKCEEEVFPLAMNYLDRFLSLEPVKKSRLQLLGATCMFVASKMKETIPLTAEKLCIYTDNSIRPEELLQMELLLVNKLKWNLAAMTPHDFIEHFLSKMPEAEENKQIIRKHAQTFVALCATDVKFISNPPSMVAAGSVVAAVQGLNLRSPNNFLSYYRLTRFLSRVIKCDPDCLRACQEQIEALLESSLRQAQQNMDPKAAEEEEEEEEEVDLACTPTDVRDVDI

| IC50 [µM] | Compound |
| --- | --- |
| < 10 | CCC(CC)n1c(CNCc2ccco2)cc2cnc(Nc3ccc(N4CCN(C(C)=O)CC4)cc3)nc21 [Example 449] |
| < 10 | Cc1cn(C2CCCC2)c2nc(Nc3ccc4[nH]ncc4c3)ncc12 [Example 281] |
| < 10 | Cc1cn(C2CCCC2)c2nc(Nc3ccc(N(C)C)cc3)ncc12 [Example 311] |
| < 10 | Cc1cn(C2CCCC2)c2nc(Nc3ccc(C(=O)N4CCOCC4)cc3)ncc12 [Example 292] |
| < 10 | CN(C)CC1CCC(n2ccc3cnc(Nc4ccc(N5CCNCC5)cc4)nc32)C1 (centres unmarked) [Example 249] |
| < 10 | Cc1c(C(=O)N(C)C)n(C2CCCC2)c2nc(Nc3ccc(N4CCNCC4)cn3)ncc12 [Example 392] |
| < 10 | Cc1cn(-c2cccnc2)c2nc(Nc3ccc(N4CCNCC4)cc3)ncc12 [Example 322] |
| < 10 | Cc1cn(C2CCCC2)c2nc(Nc3ccc(N4CCN(S(C)(=O)=O)CC4)cc3)ncc12 [Example 286] |
| < 10 | Cc1cn(C2CCCC2)c2nc(Nc3ccc(N4CCCCC4)cc3)ncc12 [Example 278] |
| < 10 | CCC(CC)n1c(CNc2cccnc2)cc2cnc(Nc3ccc(N4CCN(C(C)=O)CC4)cc3)nc21 [Example 369] |
| < 10 | Cc1cn(C2CCCC2)c2nc(Nc3ccc(CN4CCN(C(=O)OC(C)(C)C)CC4)cc3)ncc12 [Example 462] |
| < 10 | CC(=O)N1CCN(c2ccc(Nc3ncc4ccn(C5CCCCC5=O)c4n3)cc2)CC1 (centres unmarked) [Example 226] |
| < 10 | CC(=O)N1CCN(c2ccc(Nc3ncc4ccn(C5CCOCC5)c4n3)cc2)CC1 [Example 228] |
| < 10 | Cc1cn(-c2ccccn2)c2nc(Nc3ccc(N4CCNCC4)cn3)ncc12 [Example 320, (5-Methyl-7-pyridin-2-yl-7H-pyrrolo[2,3-d]pyrimidin-2-yl)-(5-piperazin-1-yl-pyridin-2-yl)-amine] |
| < 10 | Cc1cn(C2CCCC2)c2nc(Nc3ccc(-n4ccnc4)cc3)ncc12 [Example 312] |
| < 10 | c1cc(N2CCNCC2)ccc1Nc1ncc2ccn(C3CCOCC3)c2n1 [Example 235] |
| < 10 | Cc1cn(-c2nccs2)c2nc(Nc3ccc(N4CCNCC4)cn3)ncc12 [Example 321] |
| < 10 | Cc1cn(C2CCCC2)c2nc(Nc3cccnc3)ncc12 [Example 300] |
| < 10 | CCc1cn(C2CCCC2)c2nc(Nc3ccc(N4CCNCC4)cc3)ncc12 [Example 438] |

| IC50 [µM] | Compound |
| --- | --- |
| < 10 | CCC(CC)n1c(C(=O)OC)cc2cnc(Nc3ccc(N4CCN(C(C)=O)CC4)cc3)nc21 [Example 373, 2-[4-(4-Acetyl-piperazin-1-yl)-phenylamino]-7-(1-ethyl-propyl)-7H-pyrrolo[2,3-d]pyrimidine-6-carboxylic acid methyl ester] |
| < 10 | CCC(C)n1ccc2cnc(Nc3ccc(N4CCN(C(C)=O)CC4)cc3)nc21 (centres unmarked) [Example 222] |
| < 10 | Cc1cn(C2CCCC2)c2nc(Nc3ccc(N4CCOCC4)cn3)ncc12 [Example 302] |
| < 10 | CCC(CC)n1c(C(=O)NC2CCCC2)cc2cnc(Nc3ccc(N4CCNCC4)cc3)nc21 [Example 344] |
| < 10 | CCC(CC)n1c(CNC(C)C)cc2cnc(Nc3ccc(N4CCN(C(C)=O)CC4)cc3)nc21 [Example 366] |
| < 10 | CCC(C(=O)OC)n1ccc2cnc(Nc3ccc(N4CCN(C(C)=O)CC4)cc3)nc21 (centres unmarked) [Example 219] |
| < 10 | CCCCNC(=O)c1cc2cnc(Nc3ccc(N4CCNCC4)cc3)nc2n1C(CC)CC [Example 336] |
| < 10 | CC(=O)N1CCN(c2ccc(Nc3ncc4ccn(C5CCC(C)CC5)c4n3)cc2)CC1 (centres unmarked) [Example 236] |
| < 10 | CC(=O)c1c(C)c2cnc(Nc3ccc(N4CCNCC4)cn3)nc2n1C1CCOCC1 [Example 388] |
| < 10 | Cc1cn(-c2ccccc2)c2nc(Nc3ccc(N4CCNCC4)cc3)ncc12 [Example 437] |
| < 10 | CCC(C(N)=O)n1ccc2cnc(Nc3ccc(N4CCNCC4)cc3)nc21 (centres unmarked) [Example 234] |
| < 10 | CCC(CC)n1c(CNC(C)C)cc2cnc(Nc3ccc(N4CCNCC4)cc3)nc21 [Example 367] |
| > 10 | Cc1cn(C2CCCC2)c2nc(Nc3ccc4[nH]ccc4c3)ncc12 [Example 282] |
| < 10 | CCC(C(=O)OC)n1ccc2cnc(Nc3ccc(N4CCNCC4)cc3)nc21 (centres unmarked) [Example 221] |
| < 10 | CCOC(=O)C(C(C)C)n1ccc2cnc(Nc3ccc(N4CCN(C(C)=O)CC4)cc3)nc21 (centres unmarked) [Example 223] |
| < 10 | CCC(CC)n1c(COC)cc2cnc(Nc3ccc(C(=O)NC4CCCC4)cc3)nc21 [Example 380] |
| < 10 | CCC(=O)N1CCN(c2ccc(Nc3ncc4ccn(C(CC)CC)c4n3)cc2)CC1 [Example 237] |
| < 10 | CCC(C(N)=O)n1ccc2cnc(Nc3ccc(N4CCN(C(C)=O)CC4)cc3)nc21 (centres unmarked) [Example 227] |
| < 10 | CCC(CC)n1c(CNC2CCCC2)cc2cnc(Nc3ccc(N4CCN(C(C)=O)CC4)cc3)nc21 [Example 370] |

| IC50 [µM] | Compound |
| --- | --- |
| < 10 | Cc1cn(C2CCCC2)c2nc(Nc3ccc(N4CCNCC4)c(F)c3)ncc12 [Example 285] |
| < 10 | CN(C)C(=O)c1cc2cnc(NCc3ccc(N4CCNCC4)cc3)nc2n1C1CCCC1 [Example 467] |
| < 10 | Cc1cn(C2CCCC2)c2nc(Nc3ccc(S(N)(=O)=O)cc3)ncc12 [Example 288] |
| < 10 | CC(C)c1cn(C2CCCC2)c2nc(Nc3ccc(N4CCNCC4)cn3)ncc12 [Example 440] |
| < 10 | CCC(CC)n1c(COC)cc2cnc(Nc3ccc(N4CCN(C(C)=O)CC4)cc3)nc21 [Example 379] |
| < 10 | CCC(CC)n1c(C(=O)Nc2ccc(C(C)(C)C)cc2)cc2cnc(Nc3ccc(N4CCNCC4)cc3)nc21 [Example 349] |
| < 10 | Cc1cc(-c2c(C)c3cnc(Nc4ccc(N5CCNCC5)cn4)nc3n2C2CCCC2)on1 [Example 405] |
| < 10 | CCC(CC)n1c(C(=O)N2CCCC2)cc2cnc(Nc3ccc(N4CCNCC4)cc3)nc21 [Example 337] |
| < 10 | Cc1cn(C2CCCC2)c2nc(Nc3ccncc3)ncc12 [Example 298] |
| < 10 | CC(=O)N1CCN(c2ccc(Nc3ncc4ccn(C5CCCC(C)C5)c4n3)cc2)CC1 (centres unmarked) [Example 241] |
| < 10 | Cc1cn(C2CCCC2)c2nc(Nc3ccc(CO)cc3)ncc12 [Example 466] |
| < 10 | CCC(CC)n1c(C(=O)N2CCOCC2)cc2cnc(Nc3ccc(N4CCNCC4)cc3)nc21 [Example 343] |
| < 10 | CC(=O)N1CCN(c2ccc(Nc3ncc4ccn(C(C)CN(C)C)c4n3)cc2)CC1 (centres unmarked) [Example 229] |
| < 10 | CCC(CC)n1c(CNc2cc(C)[nH]n2)cc2cnc(Nc3ccc(N4CCN(C(C)=O)CC4)cc3)nc21 [Example 372] |
| < 10 | CCC(CC)n1c(CNc2ccon2)cc2cnc(Nc3ccc(N4CCN(C(C)=O)CC4)cc3)nc21 [Example 371] |
| < 10 | Cc1cn(C2CCCC2)c2nc(Nc3ccc(N4CCNCC4)nc3)ncc12 [Example 283] |
| < 10 | CN1CCN(c2ccc(Nc3ncc4ccn(C5CCCC5)c4n3)nc2)CC1 [Example 255] |
| < 10 | CCC(CC)n1c(C(=O)Nc2ccc(CN3CCN(C)CC3)cc2)cc2cnc(Nc3ccc(N4CCNCC4)cc3)nc21 [Example 354] |

These compounds were tested against CDK2/Cyclin-A kinase complex (Homo sapiens, UniProt P24941) (assay: CDK2 IMAP fluorescence polarization assay). Conditions: Table C; read-out: CDK2 IC50.
Format: biochemical
Description: In order to test the CDK2 activity of the compounds of the invention, the CDK2 assay is a fluorescence polarization assay, where the enzyme is a purified active CDK2/Cyclin-A kinase complex and the substrate is a synthesized peptide derived from Histone H1. This assay utilizes the IMAP technology from Molecular Devices. The active CDK2/Cyclin-A complex phosphorylates the peptide substrate, which is conjugated with the TAMRA tag. The phosphorylated site is then recognized by a metal containing molecule that interacts with the TAMRA tag to induce a high fluorescence polarization. The compounds that inhibit the CDK2 kinase activity would inhibit the fluorescence output of the assay.

| IC50 [µM] | Compound |
| --- | --- |
| > 10 | Cc1cn(C2CCCC2)c2nc(Nc3ccc(N4CCNCC4)cn3)ncc12 |
| > 10 | Cc1cn(C2CCCC2)c2nc(Nc3ccc(N4CCN(C)CC4)cc3)ncc12 |
| < 10 | CC(=O)N1CCN(c2ccc(Nc3ncc4c(C)cn(C5CCCC5)c4n3)cc2)CC1 |
| < 10 | Cc1cn(C2CCCC2)c2nc(Nc3ccc(N4CCNCC4)cc3)ncc12 |

Same assay, conditions: Table E; read-out: CDK2cyA IMAP/IC50 [umol l − 1]

| IC50 [µM] | Compound |
| --- | --- |
| > 15 | Cc1cn(C2CCCC2)c2nc(Nc3ccc4[nH]ccc4c3)ncc12 [Example 282] |

What follows are compounds tested against hCDK1/B (Homo sapiens, UniProt P06493) (assay: hCDK1/B). Conditions: Table E; read-out: hCDK1/B/IC50 [umol l − 1].
Chain of hCDK1/B (P06493 whole entry): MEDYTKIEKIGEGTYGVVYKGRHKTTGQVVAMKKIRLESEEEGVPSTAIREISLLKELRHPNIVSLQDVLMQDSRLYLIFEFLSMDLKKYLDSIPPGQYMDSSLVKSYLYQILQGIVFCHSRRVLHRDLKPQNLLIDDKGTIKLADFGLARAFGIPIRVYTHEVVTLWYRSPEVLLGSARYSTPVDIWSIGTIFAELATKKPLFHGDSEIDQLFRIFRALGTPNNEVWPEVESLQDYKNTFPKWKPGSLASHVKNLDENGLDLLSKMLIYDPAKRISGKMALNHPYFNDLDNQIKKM
Chain of hCDK1/B (P14635 whole entry partner): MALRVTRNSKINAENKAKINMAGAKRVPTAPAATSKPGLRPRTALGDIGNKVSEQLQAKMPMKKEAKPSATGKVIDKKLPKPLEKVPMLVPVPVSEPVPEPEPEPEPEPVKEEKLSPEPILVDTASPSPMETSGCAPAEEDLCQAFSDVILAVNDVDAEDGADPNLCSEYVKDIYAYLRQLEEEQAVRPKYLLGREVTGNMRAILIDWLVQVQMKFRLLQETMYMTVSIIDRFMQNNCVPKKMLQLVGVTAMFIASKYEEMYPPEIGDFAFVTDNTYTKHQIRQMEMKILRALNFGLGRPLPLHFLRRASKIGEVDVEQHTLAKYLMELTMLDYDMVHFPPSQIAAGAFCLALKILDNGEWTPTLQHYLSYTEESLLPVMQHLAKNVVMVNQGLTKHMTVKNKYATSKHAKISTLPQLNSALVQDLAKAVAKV
Format: biochemical

| IC50 [µM] | Compound |
| --- | --- |
| > 15 | Cc1cn(C2CCCC2)c2nc(Nc3ccc4[nH]ccc4c3)ncc12 [Example 282] |

The compounds below were run against CDK4/Cyclin-D1 kinase complex (Homo sapiens, UniProt P11802) (assay: CDK4 ELISA based assay, Rb phosphorylation at Serine780). Conditions: Table C.
Chain of CDK4/Cyclin-D1 kinase complex (P11802 whole entry): as the sequence (P11802 whole entry) above
Chain of CDK4/Cyclin-D1 kinase complex (P24385 whole entry partner): as the sequence (P24385 whole entry partner) above
Format: biochemical
Description: The compounds that inhibit the CDK4 kinase activity would inhibit the signal output of the assay.

| IC50 [µM] | Compound |
| --- | --- |
| > 10 | CC(=O)N1CCN(c2ccc(Nc3ncc4ccn(C5CCCC5)c4n3)nc2)CC1 |
| < 10 | Cc1cn(C2CC2)c2nc(Nc3ccc(N4CCNCC4)cc3)ncc12 |
| < 10 | Cc1cn(C2CCCCC2)c2nc(Nc3ccc(N4CCNCC4)cn3)ncc12 |
| > 10 | CC(=O)N1CCN(c2ccc(Nc3ncc4ccn(C5CCCC5)c4n3)cc2)CC1 |
| < 10 | Cc1cn(C2CCCC2)c2nc(Nc3ccc(N4CCNCC4)cn3)ncc12 |
| < 10 | CN1CCN(c2ccc(Nc3ncc4ccn(C5CCCC5)c4n3)cc2)CC1 |
| < 10 | Cc1cn(C2CCCC2)c2nc(Nc3ccc(N4CCN(C)CC4)cc3)ncc12 |
| < 10 | CC(=O)N1CCN(c2ccc(Nc3ncc4c(C)cn(C5CCCC5)c4n3)cc2)CC1 |
| > 10 | CC(C)(C)OC(=O)N1CCN(c2ccc(Nc3ncc4ccn(C5CCCC5)c4n3)nc2)CC1 |
| < 10 | c1cc(N2CCNCC2)ccc1Nc1ncc2ccn(C3CCCC3)c2n1 |
| < 10 | Cc1cn(C2CC2)c2nc(Nc3ccc(N4CCNCC4)cn3)ncc12 |

| Compound | IC50 [µM] |
| --- | --- |
| c1cc(Nc2ncc3ccn(C4CCCC4)c3n2)ncc1N1CCNCC1 | > 10 |
